Reference: patent US20090054507A1, “CONTROL OF MALIGNANT CELLS BY KINASE INHIBITION” (CLEVELAND STATE UNIVERSITY, priority 2006, published 2009)

Experiments:
Type in all cases: cell-based, human
MEG-01 cells [1] = test: Viability (proliferation) assay, Trypan blue exclusion, MEG-01
MEG-01 cells [2] = test: Annexin V-FITC and PI apoptosis assay, MEG-01
Method: Flow cytometric analysis. Cells were analyzed using a FACSCalibur flow cytofluorometer (Becton-Dickinson), with CellQuestPro ver. 3.3 software. The data was further analyzed with FlowJo ver. 6.2, and WinMDI 2.8 software. Proper gating was performed to characterize each cell population (MEG-01 cells and platelets). The population that corresponds to platelets (small, granulated particles), is PI negative because thrombocytes are anucleated cells (only the viable cells were considered) and were distinguished by their capacity to become activated, undergoing shape change in response to agonist and to show phosphatidylserine (PS) exposure when activated. Platelets were further separated from the megakaryocytic cells, by differential centrifugation, considering the size difference between these cell populations (1-5 μm for platelets and 35-150 μm for megakaryocytic cell line MEG-01) and analyzed separately. Voltage and channels settings were adjusted accordingly. Analyzed values were obtained with WinMDI ver. 2.8.
Apoptosis Assays using Flow Cytometry with Annexin V-FITC and propidium iodide (PI). For induction of typical apoptosis, cells were grown in the presence of 1 μM staurosporine (Sigma-Aldrich) for 6 hours. The staurosporine treated cells were stained as follows: control 1 with PI, control 2 with Annexin V-FITC and control 3 both PI and Annexin V-FITC in order to have the brightest controls for compensation and proper collection of the flow cytometry data. Cell necrosis was induced by heat shock (65° C. for 30 minutes). The stained control, both PI and Annexin V-FITC labeled, was then used as the reference in establishing the level of apoptosis induced by the treatments. Data was collected on logarithmic modes, two-colors. Annexin V-FITC corresponds to FL1 H channel, and PI to FL3H or FL2H channels.
Annexin V-FITC and PI apoptosis assay staining protocol. Apoptosis Annexin V-FITC and PI kit from BD Biosciences, CA, USA, was used. 10^5-10^6 cells were stained with 50 μg/ml PI and with 0.5 μg/ml FITC-labeled Annexin V using the staining protocol provided by the supplier. Samples were then analyzed immediately by flow cytometry.

MEG-01 cells [3] = test: Thrombocytopoiesis / proplatelet formation by microscopy
Method: Light microscopy (phase contrast) and DAPI fluorescence microscopy. High quality pictures and live imaging were obtained at Cleveland Clinic Imaging Core (Cleveland, Ohio). DAPI staining of cultured MEG-01 cells was performed with fresh cells. For live imaging (observing a single cell for a 24 hour period of time) of the thrombocytopoiesis process, MEG-01 suspension cells were made adherent by using Fibronectin (FN) coated culture dishes. FN was used, at 5 μg/cm^2 and incubated at 37° C. for 1 h, as recommended by the supplier (BD Biosciences, Bedford, Mass., USA).
Scanning electron microscopy (SEM). Cell preparation and pictures were performed at the Microscopy Core Facility (Cleveland Clinic). Cells were grown for 4 days in the presence of 10 μM DMAT and then collected by differential centrifugation. Cells were fixed in glutaraldehyde and then further processed at the Core. The clot was prepared with platelets collected from MEG-01 cultures treated with 10 μM DMAT. Human thrombin 0.5 U/ml for 15 minutes was used to activate them.

Row | SMILES | cell number / proliferation rate of MEG-01 cells (MEG-01 cells [1]; 100 μM TBB, 4 days of treatment) | cytotoxicity (necrosis) in MEG-01 cells (MEG-01 cells [2]) | dose and time dependence of induced apoptosis and phenotype change (MEG-01 cells [2]; 24 to 96 hours) | thrombocytopoiesis (MEG-01 cells [3]) | proliferation of MEG-01 cells (Trypan Blue exclusion) (MEG-01 cells [1]; 5 nM PMA, five days of treatment)
1 | Brc1c(Br)c(Br)c2[nH]nnc2c1Br [TBB, 4,5,6,7-tetrabromobenzotriazole] | maintained a steady number of cells | without being cytotoxic | dose and time dependent | induced thrombocytopoiesis | 
2 | CCCCCCCCCCCCCC(=O)O[C@@H]1[C@@H](C)[C@@]2(O)[C@@H](C=C(CO)C[C@]3(O)C(=O)C(C)=C[C@@H]23)[C@@H]2C(C)(C)[C@]12OC(C)=O [PMA, Phorbol 12-myristate 13-acetate, reference compound] |  |  |  |  | a decrease in proliferation was observed
